Reference: patent publication US20060233877A1, “Betaine compositions” (priority 2002, published 2006)
“And” between values parts separate entries of the source, which are not always exact repeats. Equal entries are not always repeated.

Tests used:
[1] = test system: platelet adhesion and thrombus formation on collagen coated surface; assay: Parallel plate chamber: platelet adhesion and thrombus formation on collagen coated surface at 60 dynes/cm^2; type: cell-based, human
Description: The synergistic effect of asa/betaine on platelet adhesion is studied by perfusing blood on thrombogenic surface such as collagen under shear stress conditions.
Effect of betaine, aspirin or betaine/aspirin combination on platelet adhesion and thrombus formation on collagen coated surface.
We studied the effect of asafbetaine on platelet adhesion and thrombus formation under laminar flow at high shear stress (60 dynes/cm^2) on a collagen coated surface. This high shear stress mimics stenosed arteries. The blood of four fastened healthy subjects was sampled on day 1 as to determine basal values and betaine effect when added in vitro (table1), then the subjects were orally administrated a daily oral bolus dose of 350 mg of ASA during 3 days and their blood sampled on day 3 as to determine ASA effect and ASA+betaine effect when betaine is added in vitro to aspirinized blood at different concentrations (table2).
Citrated human aspirinized blood was pre-labelled with mepacrine and exposed to vehicle alone or betaine (20, 40, and 80 μg/ml) for 20 minutes before perfusion.
The effect of asa/betaine has been evaluated by performing experiments 60 dynes/cm^2 witch mimics arterial thrombosis. Before perfusion citrated whole blood was incubated with saline alone or betaine at concentration of 20, 40, and 80 μg/ml for 20 minutes and then perfused on collagen at 60 dynes/cm^2 At the end of 2 minutes of perfusion, cells were fixed and the area covered by thrombi was calculated by analysis of fluorescent thrombus images acquired by confocal microscopy.
Collagen coated slides. Glass slides were with collagen (200 μg/ml; equine collagen), placed for 1 hour in a water bath at 37° C., and the collagen gel allowed to evaporate for 30 minutes under a ventilated hood. Perfusion with citrated whole blood was started and continued for 2 minutes, then blood was withdrawn from the circuit, and platelet thrombi adherent to the collagen coated surface were fixed and stained with May Grunwald-Giemsa.
Images of platelet thrombi were digitised using a light microscope connected to a computer-based image analysis system. The surface occupied by thrombi and mean thrombus area were evaluated by automatic edge detection using built-in specific functions of a software image.
Platelet adhesion and thrombus formation. Platelet adhesion assay was performed according to the described previously (Alevriadou et al., 1993; Boccardo et al., 1997) with minor modifications. Blood collected on citrate (3,8%) was perfused through a flow chamber using a syringe pump. A flow chamber thermostatized to 37° C. was used in which one surface of the perfusion channel is a glass slide coated with equine collagen.
Flow chamber. The chamber dimensions (30 mm long, 1 mm large, and 150 μm in the thickness) allow to obtain a wide range of shear rate low flow rates of blood.
Citrated whole blood was incubated with the fluorescent dye mepacrine 10 μM (quinacrine dihydrochloride BP; Sigma Chemical, St Louis. MO). Mepacrine concentrated in the dense granules of platelets and in the granules of leukocytes and, at this concentration has no effect on normal platelet function (3). Any fluorescence within the erythrocytes is quenched by haemoglobin. Blood was pre-incubated 5 minutes at 37° C. before perfusion. The system was filled with PBS pH 7.3, then perfusion with blood was started and maintained at the constant flow rate of 1500 sec^−1 (corresponding to a shear stress of 60 dynes/cm^2). After 2 min, perfusion was stopped and the slide with the collagen monolayer was dehydrated and fixed in acetone for 20 minutes.
Images of platelet thrombi on collagen surface were acquired by a confocal inverted laser microscope. The surface occupied by thrombi was evaluated by automatic edge detection using built-in specific functions of a software image.

[2] = cited from earlier work
[3] = test system: laser-induced thrombosis in the mesenteric microcirculation of the rat; assay: Laser-induced thrombosis; type: in vivo, Rats Wistar; conditions: for Duration of embolisation / Number of emboli: ASA 50 mg/kg s.c.
Description: Principle of Laser-Induced Thrombosis ([…]. et al., 1989; […]. et al., 1983) In this model, lesion of the vascular wall is induced by a laser beam. This beam causes a limited lesion of the vascular endothelium (only 1 to 2 cells are destroyed). This laying bare of the sub-endothelium, which is a thrombogenetic surface, results in the adherence of platelets via glycoproteins. This adherence of platelets is followed by their activation, they form pseudopods and secrete the content of their granules. This activation results in the appearance of glycoprotein binding sites which are necessary for the aggregation of the platelets between them and for platelet adhesion to the thrombogenic surfaces. This lesion is induced in the mesenteric microcirculation of the rat. It is immediately followed by the formation of a thrombus (in a few seconds). This thrombus, which rapidly enlarges under the influence of the blood flow, embolises before being formed again. The substances were subcutaneously injected 1 hour before the tests.

[4] = test system: platelet aggregation induced by ADP; assay: Aggregation tests (whole blood aggregometry, ADP 5 μM) after subcutaneous dosing; type: in vivo, Rats Wistar
[5] = Solubility in water / concentrated betaine solution; type: physicochemical
[6] = experiment A, ASA 100 mg/kg s.c.
[7] = experiment A, ASA 100 mg/kg s.c., mean
[8] = experiment B, ASA 50 mg/kg s.c.
[9] = experiment B, ASA 50 mg/kg s.c., mean

CC(=O)Oc1ccccc1C(=O)O [ASA, acetylsalicylic acid]
area covered by thrombi ([1]; aspirinized blood (350 mg ASA oral daily, 3 days) + saline): 72856 pixels/field and 121321 pixels/field and 132458 pixels/field and 122652 pixels/field | solubility in water [2]: about 0.3% | Number of laser shoots ([3]; experiment A, ASA 100 mg/kg s.c. 1 hour before, rats 1-5 and mean): 4 and 3 | Number of laser shoots ([3]; experiment A, ASA 100 mg/kg s.c. 1 hour before, rats 1-5 and mean, mean): 3.2 ± 0.45 | Duration of embolisation ([3]; experiment B): 4 min and 3 min and 2 min | Number of emboli ([3]; experiment B): 3 and 4 | Number of laser shoots ([3]; experiment B, ASA 50 mg/kg s.c. 1 hour before, n=6 rats and mean): 2 and 3 | Number of laser shoots ([3]; experiment B, ASA 50 mg/kg s.c. 1 hour before, n=6 rats and mean, mean): 2.33 | Duration of embolisation ([3]; experiment B, mean): 2.5 min | Number of emboli ([3]; experiment B, mean): 3.33 | Number laser shoots ([3]; experiment C, ASA 100 mg/kg s.c. 1 hour before, 6 rats and mean): 4 and 3 and 2 | Amplitude [4, 6]: 2 ohm and 3 ohm and 4 ohm | velocity [4, 6]: 4 ohm/min and 3 ohm/min and 5 ohm/min | Amplitude [4, 7]: 2.6 ± 0.89 ohm | velocity [4, 7]: 3.8 ± 0.84 ohm/min | Amplitude [4, 8]: 8 Ohm and 9 Ohm and 10 Ohm and 7 Ohm | velocity [4, 8]: 7 Ohm/min and 8 Ohm/min and 9 Ohm/min and 6 Ohm/min | Amplitude [4, 9]: 8.5 Ohm | velocity [4, 9]: 7.33 Ohm/min

C[N+](C)(C)CC(=O)O [betaine, Betaine monohydrate]
area covered by thrombi ([1]; betaine 20 μg/ml in vitro, 20 minutes, subjects 1-4 and mean, monohydrate): 88746 pixels/field and 135241 pixels/field and 122369 pixels/field and 154425 pixels/field | area covered by thrombi ([1]; betaine 40 μg/ml in vitro, 20 minutes, monohydrate): 66852 pixels/field and 92433 pixels/field and 89628 pixels/field and 95645 pixels/field | area covered by thrombi ([1]; betaine 80 μg/ml in vitro, 20 minutes, monohydrate): 57544 pixels/field and 81585 pixels/field and 76654 pixels/field and 82579 pixels/field | reduction in platelet deposition in respect to vehicle ([1]; betaine 80 μg/ml, Table 1): −49% | effect on platelet deposition and thrombus formation ([1]; high shear stress, versus vehicle-treated blood): significantly inhibit platelet deposition and consequent thrombus formation

O=C(O)c1ccccc1O [salicylic acid]
amount that can be dissolved ([5]; cold concentrated betaine solution): Up to 5% | amount dissolved relative to pure water ([5]; cold concentrated betaine solution vs pure water): 15 times
